Among the test systems are KM12; EKVX; ACHN; MDA-MB-231; SNB-19; NCI-H23; HCC 2998; SF-295; SR; NCI-H460; U-251; T47D; M14; RPMI-8226; OVCAR-4; OVCAR-5; HL-60; UACC-257; HCT-15.
Experiment in all cases: DTP human tumour cell line panel, 48 h

Molecules are shown by their SMILES.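 Where inhibition never reached the appropriate level, the endpoint shown equals the highest concentration tested. Otherwise, values were interpolated linearly from a five-concentration, 48-hour dose response in 96-well plates. GI50 = concentration required for 50% inhibition of growth.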 The source made the active and inactive calls. Cut-off read from the data, not from the text of the source: active = GI50 up to about 1.1 µM and inactive = higher.

By GI50 is commonly meant the concentration giving 50% growth inhibition. On to `CCOC(=O)Cc1ccc(Nc2nc3cc(F)c(F)cc3nc2C(=O)OCC)cc1`, for which the GI50 with KM12 was > 100 µM (inactive); with EKVX, 22.8 µM (inactive); in the experiment on ACHN, 18.4 µM (inactive); in the experiment on MDA-MB-231 it was 2.34 µM (inactive); in the experiment on SNB-19 it was 48.2 µM (inactive); in the experiment on NCI-H23, 26 µM (inactive). Moreover, the GI50 in the experiment on HCC 2998 is 25.6 µM (inactive); in the experiment with SF-295 it was 73.1 µM (inactive); in the experiment with SR, 26.5 µM (inactive); with NCI-H460, 69.5 µM (inactive); in the experiment on U-251, 28.9 µM (inactive); with T47D it was 35.1 µM (inactive). The GI50 was 35.1 µM (inactive) in the experiment on M14; 39.1 µM (inactive) in the experiment on RPMI-8226; 57 µM (inactive) with OVCAR-4; > 100 µM (inactive) with OVCAR-5; 39.3 µM (inactive) in the experiment on HL-60; 44.2 µM (inactive) in the experiment on UACC-257. The compound further showed a 50% growth inhibitory concentration (GI50) in the experiment with HCT-15 of 21.8 µM.

Consider `Cc1nc2c3c(ncn2n1)Oc1c(c(-c2ccccc2)nn1-c1ccccc1)C3c1ccc(Cl)cc1` (configuration not stated), for which the GI50 in the experiment with KM12 was > 100 µM (inactive); in the experiment with EKVX, > 100 µM (inactive); in the experiment on ACHN, 40.8 µM (inactive); with MDA-MB-231, > 100 µM (inactive); in the experiment on SNB-19 it was 34.8 µM (inactive); with NCI-H23 it was > 100 µM (inactive). The GI50 with HCC 2998 was > 100 µM (inactive); in the experiment with SF-295, 50.8 µM (inactive); in the experiment on SR it was 45.1 µM (inactive); with NCI-H460, > 100 µM (inactive); with U-251, 53.6 µM (inactive); in the experiment with T47D it was > 100 µM (inactive). The GI50 in the experiment on M14 was 79.3 µM (inactive); in the experiment with RPMI-8226, > 100 µM (inactive); in the experiment with OVCAR-4, 22.1 µM (inactive); with OVCAR-5, > 100 µM (inactive); in the experiment with HL-60, > 10 µM (inactive); with UACC-257 it was > 100 µM (inactive). Besides, the concentration for 50% growth inhibition (GI50) in the experiment with HCT-15 was over 100 µM.

Consider `CN(CCCNC(=O)c1nn(-c2ccc(Cl)cc2Cl)c2c1ccc1ccccc12)CCCNC(=O)c1nn(-c2ccc(Cl)cc2Cl)c2c1ccc1ccccc12`, for which the GI50 in the experiment with KM12 is 1.77 µM (inactive); in the experiment with EKVX it was 1.69 µM (inactive); in the experiment on ACHN, 1.66 µM (inactive); with MDA-MB-231 it was 1.75 µM (inactive); in the experiment on SNB-19, 1.54 µM (inactive); in the experiment on NCI-H23, 1.81 µM (inactive). For the same compound, the GI50 in the experiment with HCC 2998 was 1.53 µM (inactive); in the experiment with SF-295 it was 1.67 µM (inactive); in the experiment on SR it was 0.278 µM (active); in the experiment on NCI-H460 it was 1.78 µM (inactive); with U-251, 1.69 µM (inactive); in the experiment on T47D it was 1.81 µM (inactive). In addition, the GI50 in the experiment with M14 was 1.6 µM (inactive); with RPMI-8226, 1.87 µM (inactive); in the experiment on OVCAR-4, 1.68 µM (inactive); in the experiment with OVCAR-5, 1.89 µM (inactive); in the experiment with HL-60 it was 0.322 µM (active); with UACC-257, 1.78 µM (inactive). In the experiment on HCT-15, this compound had a GI50 of 1.7 µM.

Take `COC(=O)/C=C/[C@H]1[C@H](C)N1S(=O)(=O)c1ccc(C)cc1` (some centres not stated): the GI50 in the experiment on KM12 is > 100 µM (inactive); in the experiment with EKVX, > 100 µM (inactive); with ACHN it was 89.7 µM (inactive); with MDA-MB-231, > 100 µM (inactive); with SNB-19, > 100 µM (inactive); in the experiment on NCI-H23, 74.3 µM (inactive). Also, the GI50 is > 100 µM (inactive) in the experiment on HCC 2998; > 100 µM (inactive) in the experiment on SF-295; 31.6 µM (inactive) with SR; > 100 µM (inactive) in the experiment with NCI-H460; > 100 µM (inactive) in the experiment on U-251; > 100 µM (inactive) with T47D. Besides, the GI50 with M14 was > 100 µM (inactive); in the experiment with RPMI-8226, 51.6 µM (inactive); in the experiment on OVCAR-4, 56.8 µM (inactive); in the experiment with OVCAR-5 it was > 100 µM (inactive); with HL-60 it was > 99.5 µM (inactive); in the experiment with UACC-257, > 100 µM (inactive). In addition, the GI50 with HCT-15 was over 100 µM.

On to `COc1c(C)c(OCC=C(C)C)cc(CO)c1CO`, for which the GI50 in the experiment on KM12 is 63 µM (inactive); in the experiment with EKVX, 77.8 µM (inactive); in the experiment with ACHN it was 67.8 µM (inactive); in the experiment with MDA-MB-231 it was 69.8 µM (inactive); with SNB-19, 88.3 µM (inactive); in the experiment on NCI-H23, 38.7 µM (inactive). The GI50 in the experiment with HCC 2998 is 82.6 µM (inactive); with SF-295, 45.4 µM (inactive); with SR, 18.2 µM (inactive); in the experiment with NCI-H460, 38.7 µM (inactive); with U-251, 50.1 µM (inactive); in the experiment on T47D it was 38.1 µM (inactive). Also, the GI50 in the experiment with M14 was > 100 µM (inactive); in the experiment on RPMI-8226, 20.4 µM (inactive); in the experiment with OVCAR-4, 35.6 µM (inactive); with OVCAR-5, > 100 µM (inactive); with HL-60 it was 47.5 µM (inactive); in the experiment with UACC-257 it was 81.8 µM (inactive). In the experiment on HCT-15, the 50% growth inhibitory concentration (GI50) was 41.5 µM.

In the case of `COC(=O)c1cccc(OC)c1C#Cc1c(OC)cccc1OC`, the GI50 with KM12 was 69.7 µM (inactive); in the experiment on EKVX, > 100 µM (inactive); in the experiment on ACHN, > 100 µM (inactive); in the experiment with MDA-MB-231, > 100 µM (inactive); in the experiment on SNB-19, > 100 µM (inactive); in the experiment with NCI-H23, > 100 µM (inactive). Further, the GI50 in the experiment on HCC 2998 was > 100 µM (inactive); in the experiment with SF-295 it was > 100 µM (inactive); in the experiment with SR it was > 100 µM (inactive); with NCI-H460 it was > 100 µM (inactive); in the experiment with U-251 it was > 100 µM (inactive); in the experiment with T47D it was 76.2 µM (inactive). The GI50 in the experiment on M14 was > 100 µM (inactive); in the experiment with RPMI-8226, > 100 µM (inactive); in the experiment with OVCAR-4 it was 54.1 µM (inactive); with OVCAR-5, > 100 µM (inactive); in the experiment on HL-60, > 100 µM (inactive); in the experiment with UACC-257 it was > 100 µM (inactive). The same compound returned a 50% growth inhibitory concentration (GI50) in the experiment on HCT-15 of over 100 µM.

For `N#C/C(C(=O)Nc1ccccc1)=C(/N)N1CCCC1`, the GI50 with KM12 is > 100 µM (inactive); with EKVX, 72.3 µM (inactive); in the experiment on ACHN, > 100 µM (inactive); in the experiment on MDA-MB-231, > 100 µM (inactive); with SNB-19 it was > 100 µM (inactive); in the experiment on NCI-H23, > 100 µM (inactive). For the same compound, the GI50 with HCC 2998 is > 100 µM (inactive); in the experiment on SF-295 it was > 100 µM (inactive); in the experiment on SR it was > 100 µM (inactive); with NCI-H460 it was > 100 µM (inactive); in the experiment with U-251, > 100 µM (inactive); in the experiment with T47D it was 35.2 µM (inactive). Moreover, the GI50 in the experiment with M14, in the experiment on RPMI-8226, in the experiment with OVCAR-4, in the experiment on OVCAR-5, with HL-60 and in the experiment with UACC-257 was > 100 µM (inactive) in each case. The same compound had a 50% growth inhibitory concentration (GI50) in the experiment on HCT-15 of over 100 µM.

`COC(=O)C1CCC(=O)N1C(c1ccccc1)c1ccc(OC)c(OC)c1` (configuration not stated): the GI50 in the experiment on KM12, with EKVX, in the experiment with ACHN, in the experiment with MDA-MB-231, with SNB-19 and with NCI-H23 was > 100 µM (inactive) each time. The GI50 in the experiment with HCC 2998, with SF-295, with SR, in the experiment with NCI-H460, with U-251 and in the experiment on T47D was > 100 µM (inactive) in each case. Also, the GI50 with M14, in the experiment on RPMI-8226, in the experiment with OVCAR-4, in the experiment with OVCAR-5, in the experiment with HL-60 and in the experiment on UACC-257 was > 100 µM (inactive) in each case. This compound came in with a 50% growth inhibitory concentration (GI50) in the experiment with HCT-15 of over 100 µM.

These data come from ChEMBL document CHEMBL1201862, “PubChem BioAssay data set” (2004).
